Measured values as given in ChEMBL document CHEMBL1201862, “PubChem BioAssay data set” (2004).
Blank lines part the entries; values can stand above or below the compound they belong to. Active and inactive are the calls of the source.

How the values were obtained:
NADPH oxidase 1 = NADPH oxidase 1 (Homo sapiens, UniProt Q9Y5S8); format: functional, cell-based;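 further: Cell-based assay with luminescence read-out, IC50 derived from inhibitor dose-response curves; intracellular ROS from endogenous NOX1 in intact HT29 colon cancer cells; potency of inhibitors that lower the ROS luminescence signal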
NADPH oxidase 1, sequence (Q9Y5S8 whole entry): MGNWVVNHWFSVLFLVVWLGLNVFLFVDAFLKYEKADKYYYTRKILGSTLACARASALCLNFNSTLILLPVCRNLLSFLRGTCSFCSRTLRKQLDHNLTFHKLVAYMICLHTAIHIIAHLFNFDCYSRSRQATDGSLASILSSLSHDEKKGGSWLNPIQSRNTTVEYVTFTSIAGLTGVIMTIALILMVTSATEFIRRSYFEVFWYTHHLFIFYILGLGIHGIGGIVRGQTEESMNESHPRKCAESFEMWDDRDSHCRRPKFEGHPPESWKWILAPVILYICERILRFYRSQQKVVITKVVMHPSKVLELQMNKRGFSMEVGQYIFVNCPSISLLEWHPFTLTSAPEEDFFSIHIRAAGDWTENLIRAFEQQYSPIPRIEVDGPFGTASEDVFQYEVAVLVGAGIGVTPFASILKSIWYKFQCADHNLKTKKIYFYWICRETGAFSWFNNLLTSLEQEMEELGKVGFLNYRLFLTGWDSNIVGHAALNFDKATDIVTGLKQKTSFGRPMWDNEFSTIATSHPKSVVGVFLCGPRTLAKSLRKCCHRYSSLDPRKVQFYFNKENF

[1] = target: Acyl-homoserine lactone acylase PvdQ (Pseudomonas aeruginosa (strain LESB58), UniProt Q9I194); experiment: P. aeruginosa PvdQ acylase inhibitors, dose response, biochemical, fluorescence, plate reader and imaging, cherry-picks (AID 493231)
Acyl-homoserine lactone acylase PvdQ, sequence (Q9I194 24-193 limits assumed): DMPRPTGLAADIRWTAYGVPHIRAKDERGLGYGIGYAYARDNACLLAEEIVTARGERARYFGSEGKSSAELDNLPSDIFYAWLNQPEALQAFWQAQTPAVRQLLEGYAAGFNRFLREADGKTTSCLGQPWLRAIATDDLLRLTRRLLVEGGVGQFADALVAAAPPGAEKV
Acyl-homoserine lactone acylase PvdQ, sequence (Q9I194 217-762 limits assumed): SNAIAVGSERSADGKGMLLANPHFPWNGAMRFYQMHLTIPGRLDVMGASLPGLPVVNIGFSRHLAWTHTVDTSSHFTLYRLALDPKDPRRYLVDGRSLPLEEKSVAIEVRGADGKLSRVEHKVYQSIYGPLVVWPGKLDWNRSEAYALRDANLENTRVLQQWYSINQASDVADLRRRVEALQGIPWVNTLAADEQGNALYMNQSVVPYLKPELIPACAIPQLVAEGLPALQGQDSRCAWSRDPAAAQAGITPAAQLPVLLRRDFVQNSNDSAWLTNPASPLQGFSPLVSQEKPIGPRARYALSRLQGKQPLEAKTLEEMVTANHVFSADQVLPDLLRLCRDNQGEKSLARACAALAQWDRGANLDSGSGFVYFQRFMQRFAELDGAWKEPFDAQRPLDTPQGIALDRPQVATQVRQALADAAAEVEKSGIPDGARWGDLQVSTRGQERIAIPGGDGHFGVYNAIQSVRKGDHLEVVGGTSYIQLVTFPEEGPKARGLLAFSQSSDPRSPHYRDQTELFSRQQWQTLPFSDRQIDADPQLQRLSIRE

[2] = cytotoxicity in HPDE-C7 cells, cell-based, fluorescence, HTS (AID 430); format: functional; details: Homo sapiens
[3] = target: T1, Corticotropin-releasing factor receptor 2/Corticotropin-releasing factor-binding protein (Homo sapiens, UniProt P24387+Q13324); experiment: Dose Response confirmation of uHTS hits for small molecule antagonists of the CRF-binding protein and CRF-R2 receptor complex.; format: functional; details: read-out: IC50_Mean
T1 sequence (Q13324 whole entry): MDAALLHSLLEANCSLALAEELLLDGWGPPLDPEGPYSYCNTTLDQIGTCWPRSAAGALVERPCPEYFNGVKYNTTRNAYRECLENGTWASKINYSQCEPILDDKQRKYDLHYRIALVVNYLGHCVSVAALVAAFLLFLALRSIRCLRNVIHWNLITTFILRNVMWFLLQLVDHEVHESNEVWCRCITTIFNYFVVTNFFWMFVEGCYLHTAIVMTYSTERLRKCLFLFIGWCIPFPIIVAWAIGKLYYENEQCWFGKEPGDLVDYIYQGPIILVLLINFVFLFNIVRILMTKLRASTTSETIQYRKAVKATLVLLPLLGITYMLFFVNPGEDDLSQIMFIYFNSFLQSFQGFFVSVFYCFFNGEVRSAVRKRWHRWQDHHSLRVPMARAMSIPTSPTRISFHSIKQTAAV
T1 sequence (P24387 whole entry): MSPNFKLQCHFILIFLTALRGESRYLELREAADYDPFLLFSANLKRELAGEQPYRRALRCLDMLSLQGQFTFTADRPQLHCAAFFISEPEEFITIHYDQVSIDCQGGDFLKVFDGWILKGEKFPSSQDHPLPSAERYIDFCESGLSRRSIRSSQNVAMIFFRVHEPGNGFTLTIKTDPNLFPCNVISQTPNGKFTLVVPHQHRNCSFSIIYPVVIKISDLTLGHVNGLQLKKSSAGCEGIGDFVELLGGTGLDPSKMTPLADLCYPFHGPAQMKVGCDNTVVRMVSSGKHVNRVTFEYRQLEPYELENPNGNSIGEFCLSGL

[4] = target: T1, Corticotropin-releasing factor receptor 2/Corticotropin-releasing factor-binding protein; experiment: activators of CRF receptor 2 with binding protein – uHTS hits, confirmation (AID 602473); format: functional; details: read-out: EC50_Mean
[5] = cytotoxicity in KRAS-transformed pancreatic duct cells, primary screen, cell-based, fluorescence, HTS (AID 431); format: functional; details: Homo sapiens;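 further: cell line used: HPDE-C7K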
Protein Tat = Protein Tat (Human immunodeficiency virus type 1 group M subtype B (isolate HXB2)(HIV-1), UniProt P04608); format: functional;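 further: tat binding to TAR RNA read out by fluorescence polarization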
Protein Tat, sequence (P04608 whole entry): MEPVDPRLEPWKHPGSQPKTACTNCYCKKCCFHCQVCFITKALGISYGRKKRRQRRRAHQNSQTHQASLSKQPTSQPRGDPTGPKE

Bcl-2-like protein 10 = Bcl-2-like protein 10 (Homo sapiens, UniProt Q9HD36); experiment: displacers of TR3 peptide from Bcl-B, primary screen, selectivity assay for Bfl-1 inhibitor project, biochemical, fluorescence polarization, FITC-TR3 peptide (AID 748);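 further: fluorescence polarization from a fluorescein-labelled TR3 peptide binding purified Bcl-B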
Bcl-2-like protein 10, sequence (Q9HD36 whole entry): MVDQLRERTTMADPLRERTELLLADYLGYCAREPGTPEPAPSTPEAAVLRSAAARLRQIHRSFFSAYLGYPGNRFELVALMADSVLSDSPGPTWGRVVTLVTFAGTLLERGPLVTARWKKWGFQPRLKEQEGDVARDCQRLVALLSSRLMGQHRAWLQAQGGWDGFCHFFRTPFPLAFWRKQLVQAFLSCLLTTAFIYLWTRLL

Estrogen receptor beta = Estrogen receptor beta (Homo sapiens, UniProt Q92731); experiment: ERβ–SRC-3 coactivator interaction inhibitors, confirmation, orthogonal assay, biochemical, ELISA, streptavidin-HRP readout (AID 1060)
Estrogen receptor beta, sequence (Q92731 whole entry): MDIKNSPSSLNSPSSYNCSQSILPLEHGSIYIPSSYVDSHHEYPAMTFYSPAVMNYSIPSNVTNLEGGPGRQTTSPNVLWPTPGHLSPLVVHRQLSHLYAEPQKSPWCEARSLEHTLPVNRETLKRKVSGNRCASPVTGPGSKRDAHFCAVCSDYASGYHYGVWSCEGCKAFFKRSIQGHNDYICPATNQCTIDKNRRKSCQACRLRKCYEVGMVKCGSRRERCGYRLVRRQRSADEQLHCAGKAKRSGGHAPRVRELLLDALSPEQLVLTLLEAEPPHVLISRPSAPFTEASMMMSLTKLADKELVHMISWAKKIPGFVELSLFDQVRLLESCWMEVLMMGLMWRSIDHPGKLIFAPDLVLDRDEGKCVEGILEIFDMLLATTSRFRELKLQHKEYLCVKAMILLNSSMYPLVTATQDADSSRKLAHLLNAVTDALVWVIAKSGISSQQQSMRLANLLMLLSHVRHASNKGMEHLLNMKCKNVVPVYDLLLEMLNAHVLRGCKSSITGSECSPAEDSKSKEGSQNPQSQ

[6] = THP-1 cell cytotoxicity, dose response, cytotoxicity control for Vif-APOBEC3G degradation inhibitor project, THP-1 cells (AID 1117359); format: functional; details: Human immunodeficiency virus 1, THP-1
[7] = target: Induced myeloid leukemia cell differentiation protein Mcl-1 (Homo sapiens, UniProt Q07820); experiment: MCL1-BIM BH3 interaction inhibitors, dose response, biochemical, fluorescence polarization, BIM-BH3 peptide, 1536-well (AID 2217)
Bcl-2-like protein 1 = Bcl-2-like protein 1 (Homo sapiens, UniProt Q07817); experiment: BCL-XL inhibitors, dose response, selectivity assay for MCL1 inhibitor project, biochemical, fluorescence polarization, 1536-well (AID 2218)
Bcl-2-like protein 1, sequence (Q07817 whole entry): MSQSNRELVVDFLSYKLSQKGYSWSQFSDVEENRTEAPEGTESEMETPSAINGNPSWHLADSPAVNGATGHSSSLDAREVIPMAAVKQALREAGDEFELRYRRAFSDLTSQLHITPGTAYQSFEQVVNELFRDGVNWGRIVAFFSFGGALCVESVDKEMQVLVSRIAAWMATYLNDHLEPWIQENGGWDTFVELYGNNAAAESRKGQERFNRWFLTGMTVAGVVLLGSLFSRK

Mucolipin-3 = Mucolipin-3 (Homo sapiens, UniProt Q8TDD5); experiment: Dose response cell-based high-throughput screening assay for agonists of the transient receptor potential channel ML3 (TRPML3). [Related pubchem assays: 1526, 1424, 1448 ]; format: functional
Mucolipin-3, sequence (Q8TDD5 whole entry): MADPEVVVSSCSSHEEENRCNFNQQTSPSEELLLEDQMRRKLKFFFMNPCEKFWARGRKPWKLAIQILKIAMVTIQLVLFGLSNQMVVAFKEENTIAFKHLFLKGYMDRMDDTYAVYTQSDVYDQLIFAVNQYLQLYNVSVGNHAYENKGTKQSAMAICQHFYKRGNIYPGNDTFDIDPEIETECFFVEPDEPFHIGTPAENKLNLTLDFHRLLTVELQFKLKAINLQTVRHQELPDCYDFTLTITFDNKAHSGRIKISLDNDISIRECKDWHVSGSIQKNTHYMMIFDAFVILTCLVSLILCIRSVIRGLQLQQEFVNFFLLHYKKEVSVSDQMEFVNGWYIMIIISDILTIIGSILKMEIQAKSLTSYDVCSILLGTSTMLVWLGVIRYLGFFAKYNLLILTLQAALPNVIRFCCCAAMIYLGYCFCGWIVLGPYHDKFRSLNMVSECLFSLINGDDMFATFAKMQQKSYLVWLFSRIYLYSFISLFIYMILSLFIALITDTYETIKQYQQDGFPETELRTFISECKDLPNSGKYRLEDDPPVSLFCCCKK

Ion channel NompC = Ion channel NompC (Danio rerio, UniProt Q7T1G6); experiment: Fluorescence counterscreen assay for TRPML3 agonists: dose response cell-based high-throughput screening assay to identify agonists of the transient receptor potential channel N1 (TRPN1). [Related pubchem assays: 1526, 1424, 1448 ]; format: functional
Ion channel NompC, sequence (Q7T1G6 whole entry): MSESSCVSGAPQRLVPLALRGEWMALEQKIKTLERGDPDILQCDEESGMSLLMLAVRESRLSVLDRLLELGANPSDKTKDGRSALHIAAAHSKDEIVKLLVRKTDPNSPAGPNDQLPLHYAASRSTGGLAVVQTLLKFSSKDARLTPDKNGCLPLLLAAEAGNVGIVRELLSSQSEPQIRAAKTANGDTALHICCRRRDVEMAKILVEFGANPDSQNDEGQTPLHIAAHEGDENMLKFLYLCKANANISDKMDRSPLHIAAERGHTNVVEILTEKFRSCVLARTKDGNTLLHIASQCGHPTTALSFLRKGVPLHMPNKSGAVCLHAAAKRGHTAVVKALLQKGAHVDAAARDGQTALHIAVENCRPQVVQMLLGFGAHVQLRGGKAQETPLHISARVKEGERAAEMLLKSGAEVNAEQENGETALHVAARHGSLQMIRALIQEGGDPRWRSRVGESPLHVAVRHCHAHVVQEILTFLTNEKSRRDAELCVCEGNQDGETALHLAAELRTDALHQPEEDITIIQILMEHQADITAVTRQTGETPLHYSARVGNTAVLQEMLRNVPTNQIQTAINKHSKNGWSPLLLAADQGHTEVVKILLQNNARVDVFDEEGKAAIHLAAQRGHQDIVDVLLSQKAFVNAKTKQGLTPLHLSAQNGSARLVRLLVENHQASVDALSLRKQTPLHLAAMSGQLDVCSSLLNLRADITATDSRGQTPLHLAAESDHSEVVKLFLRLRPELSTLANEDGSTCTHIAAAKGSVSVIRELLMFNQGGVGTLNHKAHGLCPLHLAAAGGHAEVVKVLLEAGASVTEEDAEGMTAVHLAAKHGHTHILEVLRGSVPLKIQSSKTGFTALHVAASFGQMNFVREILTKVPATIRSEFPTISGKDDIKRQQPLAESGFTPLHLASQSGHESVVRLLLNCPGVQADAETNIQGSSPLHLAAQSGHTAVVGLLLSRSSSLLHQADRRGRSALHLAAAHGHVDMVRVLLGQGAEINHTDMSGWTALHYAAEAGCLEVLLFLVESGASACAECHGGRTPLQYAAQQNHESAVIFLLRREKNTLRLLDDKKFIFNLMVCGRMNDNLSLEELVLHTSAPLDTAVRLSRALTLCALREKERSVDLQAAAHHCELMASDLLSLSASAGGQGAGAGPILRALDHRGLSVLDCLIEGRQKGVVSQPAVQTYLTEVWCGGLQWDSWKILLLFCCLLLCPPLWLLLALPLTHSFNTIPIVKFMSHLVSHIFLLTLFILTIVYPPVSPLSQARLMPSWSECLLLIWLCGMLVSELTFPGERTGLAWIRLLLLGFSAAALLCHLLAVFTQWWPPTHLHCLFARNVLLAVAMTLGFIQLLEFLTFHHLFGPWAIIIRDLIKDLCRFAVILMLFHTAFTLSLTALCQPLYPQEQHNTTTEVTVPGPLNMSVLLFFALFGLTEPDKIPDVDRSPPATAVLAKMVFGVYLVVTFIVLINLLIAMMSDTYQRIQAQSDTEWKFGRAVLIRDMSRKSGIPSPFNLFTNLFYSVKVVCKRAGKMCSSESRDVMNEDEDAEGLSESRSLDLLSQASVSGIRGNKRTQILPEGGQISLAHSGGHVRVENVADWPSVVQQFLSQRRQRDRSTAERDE

Coagulation factor XII = target: T2, Coagulation factor XII (Homo sapiens, UniProt P00748); experiment: FXIIa inhibitor potency, concentration-response, biochemical (AID 716); format: functional
T2 sequence (P00748 whole entry): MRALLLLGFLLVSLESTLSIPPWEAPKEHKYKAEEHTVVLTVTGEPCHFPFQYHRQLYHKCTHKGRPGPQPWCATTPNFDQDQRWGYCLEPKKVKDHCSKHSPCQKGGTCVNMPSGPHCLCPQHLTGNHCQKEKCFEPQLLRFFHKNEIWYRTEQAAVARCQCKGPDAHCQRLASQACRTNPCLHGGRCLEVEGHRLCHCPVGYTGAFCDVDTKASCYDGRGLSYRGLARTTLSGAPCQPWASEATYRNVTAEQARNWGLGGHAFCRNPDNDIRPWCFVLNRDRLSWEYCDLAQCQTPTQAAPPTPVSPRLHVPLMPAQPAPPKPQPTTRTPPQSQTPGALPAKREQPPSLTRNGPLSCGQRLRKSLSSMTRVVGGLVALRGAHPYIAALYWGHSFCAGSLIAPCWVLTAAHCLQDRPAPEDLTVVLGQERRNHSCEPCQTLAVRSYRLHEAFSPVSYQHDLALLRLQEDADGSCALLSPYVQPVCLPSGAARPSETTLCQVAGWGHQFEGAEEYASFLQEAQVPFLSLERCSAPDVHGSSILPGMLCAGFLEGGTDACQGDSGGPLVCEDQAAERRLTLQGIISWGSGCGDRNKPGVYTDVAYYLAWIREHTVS

[8] = target: T3, Dual specificity protein phosphatase 6 (Rattus norvegicus, UniProt Q64346); experiment: MKP-3 phosphatase inhibitors, primary screen, biochemical, rat enzyme, in vitro (AID 425)
T3 sequence (Q64346 whole entry): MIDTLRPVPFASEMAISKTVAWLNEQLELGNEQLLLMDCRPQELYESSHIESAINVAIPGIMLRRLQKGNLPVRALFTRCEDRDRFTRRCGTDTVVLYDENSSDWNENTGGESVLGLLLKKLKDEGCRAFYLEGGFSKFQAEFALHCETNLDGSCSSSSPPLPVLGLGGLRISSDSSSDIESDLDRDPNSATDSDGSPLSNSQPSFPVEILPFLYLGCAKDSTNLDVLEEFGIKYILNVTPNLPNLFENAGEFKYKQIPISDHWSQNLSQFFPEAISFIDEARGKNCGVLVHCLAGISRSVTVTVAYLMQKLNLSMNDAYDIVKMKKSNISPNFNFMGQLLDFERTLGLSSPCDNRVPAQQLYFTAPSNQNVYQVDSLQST

[9] = target: T4, Tyrosine-protein phosphatase non-receptor type 7 (Homo sapiens, UniProt P35236); experiment: inhibitors of human HePTP phosphatase, […], biochemical, absorbance, leukemia target (AID 521); format: functional
T4 sequence (P35236 whole entry): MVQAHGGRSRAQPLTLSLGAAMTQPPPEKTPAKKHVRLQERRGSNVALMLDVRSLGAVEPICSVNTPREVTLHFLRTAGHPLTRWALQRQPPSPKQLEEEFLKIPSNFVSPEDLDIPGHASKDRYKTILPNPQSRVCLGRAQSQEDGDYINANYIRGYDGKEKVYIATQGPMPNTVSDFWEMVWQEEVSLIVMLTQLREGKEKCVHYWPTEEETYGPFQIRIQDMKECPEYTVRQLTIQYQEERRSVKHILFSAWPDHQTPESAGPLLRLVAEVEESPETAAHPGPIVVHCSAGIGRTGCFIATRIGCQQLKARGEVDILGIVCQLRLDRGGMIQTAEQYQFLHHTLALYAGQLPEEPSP

[10] = target: Eukaryotic translation initiation factor 4E (Mus musculus, UniProt P63073); experiment: eIF4E–eIF4G protein interaction inhibitors, dose response, biochemical, TR-FRET (AID 855); format: functional;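 further: potency for disrupting eIF4E binding to eIF4GI seen as loss of FRET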
Eukaryotic translation initiation factor 4E, sequence (P63073 whole entry): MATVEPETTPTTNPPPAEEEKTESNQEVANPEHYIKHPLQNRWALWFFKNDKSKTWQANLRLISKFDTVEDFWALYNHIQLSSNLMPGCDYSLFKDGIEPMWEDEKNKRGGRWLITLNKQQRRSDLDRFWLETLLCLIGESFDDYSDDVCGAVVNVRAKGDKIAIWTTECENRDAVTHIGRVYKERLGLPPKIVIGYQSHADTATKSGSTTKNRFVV

- IC50 (NADPH oxidase 1): > 17 µM (not active)
SMILES: C=C(NNc1c(F)c(F)nc(F)c1F)c1ccncc1

SMILES: COc1ccc(C(C#N)c2ccc(Cl)nn2)cc1 (stereo not given)
- AC50 [1]: 6.48 µM (active)

SMILES: C=C(C)COc1ccc(-c2n[nH]cc2Oc2ccccc2OC)c(O)c1
- EC50 [2]: 12.3 µM (active)
- IC50 [3]: 1.91 µM (active)
- EC50 [4]: > 53 µM (inactive)
- EC50 [5]: 9.78 µM (active)

- IC50 (Protein Tat): > 100 µM (active)
- IC50 (Bcl-2-like protein 10): 23.7 µM (active)
- IC50 (Estrogen receptor beta): < 0.023 µM (not active)
- IC50 [7]: 16.3 µM (not active)
- IC50 (Bcl-2-like protein 1): > 109 µM (not active)
SMILES: CC(=N)/C(C#N)=C(/O)CSc1nnc(NC(C)C)s1
- CC50 [6]: > 40 µM (active)

- IC50 (NADPH oxidase 1): > 17 µM (not active)
SMILES: COc1cc([N+](=O)[O-])ccc1NC(=O)Nc1ccc(Oc2ccccc2)cc1

- EC50 (Mucolipin-3): 5.15 µM (active)
- EC50 (Ion channel NompC): > 29.9 µM (not active)
SMILES: Cc1ccc(S(=O)(=O)c2c(C)nn(C(C)(C)C)c2OC(=O)C(C)(C)C)cc1

- IC50 (Coagulation factor XII): > 50 µM (inactive)
SMILES: O=C(Nc1ccc(Cl)c(Cl)c1)N1CC=CCC1

- IC50 (Bcl-2-like protein 10): 2 µM (active)
- IC50 [8]: 1.83 µM (active)
- IC50 [9]: 0.84 µM (active)
- IC50 [10]: 5.02 µM (active)
SMILES: O=C(OC1CCCCC1)c1ccc2c(c1)C1C=CCC1C(C(=O)O)N2 (stereo not given)
